Values of other authors, collected in US20240423896A1, “METHOD FOR IMPROVING THE TACTILE SENSATION OF DYED KERATINOUS FIBRES, IN PARTICULAR HUMAN HAIR” (HENKEL AG & CO. KGAA, priority 2021, published 2024).

Conditions: 25° C.

Row | SMILES | solubility in water | further results
1 | O=C([O-])c1c(Cl)c(Cl)c(Cl)c(Cl)c1-c1c2cc(Br)c(=O)c(Br)c-2oc2c(Br)c([O-])c(Br)cc12.[Na+].[Na+] [Acid Red 92, disodium salt of 3,4,5,6-tetrachloro-2-(1,4,5,8-tetrabromo-6-hydroxy-3-oxanthene-9-yl) benzoic acid] | greater than 10 g/L | 
2 | CCN(Cc1cccc(S(=O)(=O)[O-])c1)c1ccc(C(=C2C=CC(=[N+](CC)Cc3cccc(S(=O)(=O)[O-])c3)C=C2)c2ccccc2S(=O)(=O)[O-])cc1.[Na+].[Na+] [Acid Blue 9, disodium salt of 2-({4-[N-ethyl(3-sulfonatobenzyl]amino]phenyl}{4-(N-ethyl(3-sulfonatobenzyl)imino]-2,5-cyclohexadien-1-ylidene}methyl)-benzenesulfonate] |  | water solubility: more than 20 wt. %
3 | Nc1cc(S(=O)(=O)[O-])cc2cc(S(=O)(=O)[O-])c(N=Nc3ccccc3)c(O)c12.[Na+].[Na+] [Acid Red 33, disodium salt of 5-amino-4-hydroxy-3-(phenylazo)-naphthalene-2,7-disulfonate] | 2500 µg/mL | 
4 | O=C([O-])C1=NN(c2ccc(S(=O)(=O)[O-])cc2)C(=O)C1N=Nc1ccc(S(=O)(=O)[O-])cc1.[Na+].[Na+].[Na+] (centres unmarked) [Acid Yellow 23, trisodium salt of 4,5-dihydro-5-oxo-1-(4-sulfophenyl)-4-((4-sulfophenyl)azo)-1H-pyrazole-3-carboxylic acid] |  | solubility in water (in words): readily soluble in water
5 | O=S(=O)([O-])c1ccc(N=Nc2c(O)ccc3ccccc23)cc1.[Na+] [Acid Orange 7, sodium salt of 4-[(2-hydroxy-1-naphthyl)azo]benzene sulphonate] | more than 7 g/L | 
